# Article PMC9885526 (ACS Central Science, 2023)
# Tests used:
# [1] = test system: SARS-CoV-2; details: cited from earlier work
# [2] = target: SARS-CoV-2 3CLpro (Severe acute respiratory syndrome coronavirus 2, UniProt P0DTD1); test: biochemical
# [3] = test system: SARS-CoV-2; set-up: species or system K18-hACE2 transgenic mice; details: mouse, in vivo, po, 300 mg/kg
# [4] = test system: SARS-CoV-2 (wild-type strain); test: microbe, parasite or virus in culture; assay type: cell-based; details: Severe acute respiratory syndrome coronavirus 2
# [5] = target: SARS-CoV 3CLpro (Severe acute respiratory syndrome coronavirus, UniProt P0C6X7); assay type: biochemical
# [6] = in vitro; details: human
# [7] = test system: SARS-CoV-2 (wild-type strain); test: microbe, parasite or virus in culture; assay type: cell-based; details: Severe acute respiratory syndrome coronavirus 2, 48 h
# [8] = test system: SARS-CoV-2 (wild-type strain); test: microbe, parasite or virus in culture; assay type: cell-based; details: Severe acute respiratory syndrome coronavirus 2, Calu-3
compound,measurement,setting,value
O=C(Cn1nnc2ccccc21)N(Cc1cccc(Cl)c1)c1ccc(-c2cnc[nH]2)cc1 [CCF0058981],EC50,[1],~500 nM
CNC(=O)c1cc(Br)cc([N+](=O)[O-])c1N[C@@H]1CCCC[C@@H]1NC(=O)c1cncc2cccc(O)c12 [WU-10],IC50,[2],135 ± 8 nM
CCC(CCNc1c(C(=O)NC)cc(Br)cc1[N+](=O)[O-])NC(=O)c1cncc2cccc(O)c12 (stereo not shown) [WU-01],IC50,[2],648 ± 68 nM
O=C(O)c1cc(Br)cc([N+](=O)[O-])c1N[C@@H]1CCCC[C@@H]1NC(=O)c1cncc2ccccc12 [WU-12],IC50,[2],6110 ± 2630 nM
"CC(C)(C)[C@H](NC(=O)C(F)(F)F)C(=O)N1C[C@H]2[C@@H]([C@H]1C(=O)N[C@H](C#N)C[C@@H]1CCNC1=O)C2(C)C [PF-07321332, Nirmatrelvir]",average body weight change,[3],did not change
same,EC50,[4],117 nM
CNC(=O)c1cc(Br)cc(C#N)c1N[C@@H]1CCCC[C@@H]1NC(=O)c1cncc2ccccc12 [WU-08],IC50,[2],467 ± 64 nM
CNC(=O)c1cc(Br)cc([N+](=O)[O-])c1NC(C(C)C)C1CN(C(=O)c2cncc3cc(O)ccc23)C1 (stereo not shown) [WU-05],IC50,[2],122 ± 16 nM
COC(=O)c1cc(Br)cc([N+](=O)[O-])c1N[C@@H]1CCCC[C@@H]1NC(=O)c1cncc2ccccc12 [WU-11],IC50,[2],849 ± 161 nM
CNC(=O)c1cc(Br)cc(C(F)(F)F)c1N[C@@H]1CCCC[C@@H]1NC(=O)c1cncc2ccccc12 [WU-07],IC50,[2],239 ± 16 nM
CNC(=O)c1cc(Br)ccc1N[C@@H]1CCCC[C@@H]1NC(=O)c1cncc2ccccc12 [WU-06],inhibitory activity against SARS-CoV-2 3CLpro,[2],abolished the activity
same,inhibition of SARS-CoV 3CLpro enzyme activity,[5],showed no activity
CNC(=O)c1cc(Br)cc([N+](=O)[O-])c1N1CC[C@@]2(CN(C(=O)c3cncc4cc(O)ccc34)C[C@@H]2c2ccccc2)C1 [WU-02],IC50,[2],71 nM
same,CC50,[6],> 20000 nM
same,EC50,[7],54 nM
same,EC90,[7],305 nM
same,EC50,[8],80 nM
same,EC90,[8],201 ± 57 nM
CNC(=O)c1cc(Br)cc([N+](=O)[O-])c1N[C@@H]1CCCC[C@@H]1NC(=O)c1cncc2cc(O)ccc12 [WU-09],IC50,[2],221 ± 35 nM
